According to patent US10894772B2, “Flavor modulator having pyridine derivative or salt thereof as active ingredient” (T. HASEGAWA CO., LTD., priority 2015, dated 2021):

Columns and labels:
Type in all cases: in vivo
panelists [1] = experiment: Flavor evaluation of ethanol solution (bottle mouth and flavor paper); settings: 1% ethanol solution, typical evaluation, 5 panelists
Method: A […] ethanol solution of the invention products 1 to 6 prepared in Examples 1 to 6 was prepared as an evaluation solution. The evaluation solution was prepared in a sample bottle. Regarding the flavor of the sample smelling from the bottle mouth and the flavor of a flavor paper prepared by infiltrating the evaluation solution into a paper, well-trained 5 panelists tested the solution for flavor evaluation.
A 0.1% ethanol solution of the invention product 101 (2-(3-benzyloxypropyl)pyridine) prepared in Example 101 was prepared as an evaluation solution. The evaluation solution was prepared in a sample bottle. Regarding the flavor of the sample smelling from the bottle mouth and the flavor of a flavor paper prepared by infiltrating the evaluation solution into a paper, well-trained 5 panelists tested the solution for flavor evaluation. A typical evaluation of the product is as follows.

panelists [2] = experiment: Confirmation of umami in water (point score); settings: average point of 10 panelists, 0 no difference from control (water), 1 somewhat stronger, 2 stronger, 3 considerably stronger, 4 poor taste balance
Method: As a comparative product, a solution was prepared by dissolving the comparative product 1 (2-(2-benzyloxyethyl)pyridine) to have the same concentration. Water with no addition was prepared as a control product. Well-trained 10 panelists tasted the solutions prepared by dissolving any the invention products 1 to 6 and the comparative product 1 for organoleptic evaluation of umami.
Umami evaluation was based on the control product of water.

panelists [3] = experiment: Confirmation of umami imparting and saltiness enhancing effect in 0.3 mass % sodium chloride (point score); settings: average point of 10 panelists vs control, 0 no change, 1 slightly higher, 2 higher, 3 considerably higher, 4 extremely higher umami and saltiness, 5 bitter as lacking balance
Method: An aqueous 0.3 mass % sodium chloride solution (control), and solutions of the invention products 1 to 6 each dissolved in a 0.3 mass % sodium chloride solution to have the concentration shown in Table 5 were prepared. As a comparative product, a solution was prepared by dissolving the comparative product 1 in 0.3 mass % sodium chloride. Well-trained 10 panelists tasted the solutions for organoleptic evaluation of umami impartment and saltiness enhancement.
Umami and saltiness scores are as follows, based on the aqueous 0.3 mass % sodium chloride solution as a control. Each sample was given any of a point 0, no change from control; 1, slightly higher umami and saltiness than control; 2, higher umami and saltiness than control; 3, considerably higher umami and saltiness than control; 4, extremely higher umami and saltiness than control; and 5, bitter as lacking balance of umami and saltiness.

[4] = 0.05 ppb in aqueous 0.3 mass % sodium chloride solution
[5] = 0.1 ppb in aqueous 0.3 mass % sodium chloride solution
[6] = 0.1 ppm in aqueous 0.3 mass % sodium chloride solution
[7] = 0.5 ppm in aqueous 0.3 mass % sodium chloride solution
[8] = 1 ppb in aqueous 0.3 mass % sodium chloride solution
[9] = 2 ppm in aqueous 0.3 mass % sodium chloride solution
[10] = 10 ppb in aqueous 0.3 mass % sodium chloride solution
[11] = 10 ppm in aqueous 0.3 mass % sodium chloride solution
[12] = 50 ppm in aqueous 0.3 mass % sodium chloride solution

SMILES	Flavor Evaluation (panelists [1])	umami (average point) (panelists [2]; 0.1 ppm in water)	umami (average point) (panelists [2]; 1 ppm in water)	umami (average point) (panelists [2]; 2 ppb in water)	umami (average point) (panelists [2]; 10 ppb in water)	umami (average point) (panelists [2]; 20 ppm in water)	umami (average point) (panelists [2]; 200 ppm in water)	umami (average point) (panelists [2]; 500 ppm in water)	umami (average point) (panelists [2]; 2000 ppm in water)	umami and saltiness (average point) (panelists [3]; [4])	umami and saltiness (average point) (panelists [3]; [5])	umami and saltiness (average point) (panelists [3]; [6])	umami and saltiness (average point) (panelists [3]; [7])	umami and saltiness (average point) (panelists [3]; [8])	umami and saltiness (average point) (panelists [3]; [9])	umami and saltiness (average point) (panelists [3]; [10])	umami and saltiness (average point) (panelists [3]; [11])	umami and saltiness (average point) (panelists [3]; [12])
c1ccc(COCCCCc2ccccn2)cc1 [invention product 1, 2-(4-benzyloxybutyl)pyridine]	Earthy	1.6	2.3	0.0	0.8	2.9	3.4	3.8	4.0	0.0	0.8	3.2	3.7	1.4	4.3	2.3	4.7	4.9
c1ccc(CCOCCc2ccccn2)cc1 [invention product 2, 2-(2-phenylethoxyethyl)pyridine]	Earthy, hyacinthine	1.5	2.0	0.0	0.7	2.8	3.2	3.8	4.0	0.0	0.7	3.0	3.9	1.5	4.4	2.4	4.6	5.0
COc1ccc(COCCCc2ccccn2)cc1 [invention product 3, 2-[3-(p-methoxybenzyloxy)propyl]pyridine]	Bitter almond	1.4	2.1	0.0	0.8	2.8	3.0	3.6	3.9	0.0	0.8	3.3	3.5	1.6	4.2	2.6	4.8	4.9
c1ccc(CCSCCc2ccccn2)cc1 [invention product 4, 2-(2-phenylethylthioethyl)pyridine]	Metallic spicy savor	1.6	2.2	0.0	0.7	3.0	3.6	3.9	4.0	0.0	0.6	3.4	3.8	1.8	4.5	2.3	4.8	5.0
Cc1ccc(COCCCc2ccccn2)cc1 [invention product 5, 2-[3-(p-methylbenzyloxy)propyl]pyridine]	Nutty	1.4	2.0	0.0	0.6	2.7	3.1	3.6	3.9	0.0	0.8	3.0	3.6	1.5	4.2	2.2	4.6	4.8
Cc1ccc(C)c(COCCCc2ccccn2)c1 [invention product 6, 2-[3-(2,5-dimethylbenzyloxy)propyl]pyridine]	Rummy	1.2	2.0	0.0	0.5	2.6	3.0	3.6	3.9	0.0	0.5	2.9	3.5	1.3	4.1	2.0	4.6	4.8
